Results: ChEMBL document CHEMBL4715864, “Discovery of 2-(5-(quinolin-6-yl)-1,3,4-oxadiazol-2-yl)acetamide derivatives as novel PI3Kα inhibitors via docking-based virtual screening” (Bioorg Med Chem, 2021)

Legend:
[1] = target: T1, Phosphatidylinositol 4,5-bisphosphate 3-kinase catalytic subunit alpha isoform (Homo sapiens, UniProt P42336); experiment: Inhibition of PI3Kalpha (unknown origin) assessed as inhibition rate using PIP2 as substrate at 10 uM measured after 1 hr by ADP-glo plus luminescence assay
[2] = target: T1, Phosphatidylinositol 4,5-bisphosphate 3-kinase catalytic subunit alpha isoform; experiment: Inhibition of PI3Kalpha (unknown origin) using PIP2 as substrate measured after 1 hr by ADP-glo plus luminescence assay
[3] = target: Phosphatidylinositol 4,5-bisphosphate 3-kinase catalytic subunit gamma isoform (Homo sapiens, UniProt P48736); experiment: Inhibition of PI3Kgamma (unknown origin) using PIP2 as substrate measured after 1 hr by ADP-glo plus luminescence assay
[4] = target: Phosphatidylinositol 4,5-bisphosphate 3-kinase catalytic subunit beta isoform (Homo sapiens, UniProt P42338); experiment: Inhibition of PI3Kbeta (unknown origin) using PIP2 as substrate measured after 1 hr by ADP-glo plus luminescence assay
Homo sapiens = species: Homo sapiens; experiment: Selectivity ratio of IC50 for PI3Kgamma (unknown origin) to IC50 for PI3Kalpha (unknown origin)
[5] = target: T2, Phosphatidylinositol 4,5-bisphosphate 3-kinase catalytic subunit delta isoform (Homo sapiens, UniProt O00329); experiment: Inhibition of PI3Kdelta (unknown origin) using PIP2 as substrate measured after 1 hr by ADP-glo plus luminescence assay
T2 sequence (O00329 whole entry): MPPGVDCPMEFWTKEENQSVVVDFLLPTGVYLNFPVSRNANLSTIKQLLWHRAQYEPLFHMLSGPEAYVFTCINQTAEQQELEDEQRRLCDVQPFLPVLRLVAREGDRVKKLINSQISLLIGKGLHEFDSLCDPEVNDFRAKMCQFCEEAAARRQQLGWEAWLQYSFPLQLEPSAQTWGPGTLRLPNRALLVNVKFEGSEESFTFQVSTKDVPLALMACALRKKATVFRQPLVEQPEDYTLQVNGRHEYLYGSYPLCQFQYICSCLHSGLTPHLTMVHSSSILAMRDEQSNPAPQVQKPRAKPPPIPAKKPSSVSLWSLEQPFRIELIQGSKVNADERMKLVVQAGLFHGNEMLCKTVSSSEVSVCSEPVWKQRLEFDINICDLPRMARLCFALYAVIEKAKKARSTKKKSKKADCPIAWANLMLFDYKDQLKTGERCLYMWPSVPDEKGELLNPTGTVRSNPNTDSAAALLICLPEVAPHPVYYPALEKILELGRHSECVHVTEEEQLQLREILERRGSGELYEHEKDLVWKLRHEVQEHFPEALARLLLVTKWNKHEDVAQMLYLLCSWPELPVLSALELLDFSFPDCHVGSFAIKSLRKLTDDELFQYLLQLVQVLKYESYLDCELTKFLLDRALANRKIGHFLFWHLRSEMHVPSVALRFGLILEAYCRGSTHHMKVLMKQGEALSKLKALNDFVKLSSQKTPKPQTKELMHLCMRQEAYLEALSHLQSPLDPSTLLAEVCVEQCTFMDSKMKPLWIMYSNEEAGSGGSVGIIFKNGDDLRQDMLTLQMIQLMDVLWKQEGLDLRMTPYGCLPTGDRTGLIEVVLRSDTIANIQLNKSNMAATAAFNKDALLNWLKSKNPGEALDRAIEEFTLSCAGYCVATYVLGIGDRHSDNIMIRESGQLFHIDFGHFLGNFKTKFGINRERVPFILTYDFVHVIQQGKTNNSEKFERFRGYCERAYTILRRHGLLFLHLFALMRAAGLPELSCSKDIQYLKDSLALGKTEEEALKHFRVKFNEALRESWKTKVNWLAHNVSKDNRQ

T1 sequence (P42336 whole entry, canonical isoform): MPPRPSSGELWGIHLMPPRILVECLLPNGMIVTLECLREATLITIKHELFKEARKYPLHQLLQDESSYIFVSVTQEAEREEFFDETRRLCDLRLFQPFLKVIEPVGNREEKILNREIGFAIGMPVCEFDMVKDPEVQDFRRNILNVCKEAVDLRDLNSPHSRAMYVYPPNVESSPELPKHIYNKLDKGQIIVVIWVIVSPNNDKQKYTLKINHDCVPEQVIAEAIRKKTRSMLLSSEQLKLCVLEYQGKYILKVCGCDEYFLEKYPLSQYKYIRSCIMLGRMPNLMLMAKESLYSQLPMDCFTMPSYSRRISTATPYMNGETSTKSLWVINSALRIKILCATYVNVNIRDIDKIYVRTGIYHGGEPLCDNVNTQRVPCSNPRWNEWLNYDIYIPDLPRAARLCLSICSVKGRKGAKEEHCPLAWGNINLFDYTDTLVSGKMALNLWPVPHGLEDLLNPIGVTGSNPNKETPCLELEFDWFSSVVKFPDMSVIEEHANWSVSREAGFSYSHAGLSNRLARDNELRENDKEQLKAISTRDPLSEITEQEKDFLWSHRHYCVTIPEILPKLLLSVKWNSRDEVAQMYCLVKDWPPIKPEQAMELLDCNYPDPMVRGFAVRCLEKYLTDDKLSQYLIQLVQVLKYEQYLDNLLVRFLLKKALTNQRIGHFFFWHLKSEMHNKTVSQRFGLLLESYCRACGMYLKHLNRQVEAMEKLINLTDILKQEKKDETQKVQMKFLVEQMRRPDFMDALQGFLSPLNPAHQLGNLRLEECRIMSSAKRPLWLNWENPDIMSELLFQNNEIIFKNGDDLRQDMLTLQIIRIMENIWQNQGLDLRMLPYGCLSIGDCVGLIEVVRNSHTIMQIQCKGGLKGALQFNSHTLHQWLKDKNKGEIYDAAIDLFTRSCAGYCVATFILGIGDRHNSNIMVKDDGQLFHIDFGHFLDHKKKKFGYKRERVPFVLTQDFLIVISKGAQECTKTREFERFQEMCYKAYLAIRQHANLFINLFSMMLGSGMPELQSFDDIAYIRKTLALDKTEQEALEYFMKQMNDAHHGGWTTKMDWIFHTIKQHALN
Phosphatidylinositol 4,5-bisphosphate 3-kinase catalytic subunit beta isoform, sequence (P42338 whole entry, canonical isoform): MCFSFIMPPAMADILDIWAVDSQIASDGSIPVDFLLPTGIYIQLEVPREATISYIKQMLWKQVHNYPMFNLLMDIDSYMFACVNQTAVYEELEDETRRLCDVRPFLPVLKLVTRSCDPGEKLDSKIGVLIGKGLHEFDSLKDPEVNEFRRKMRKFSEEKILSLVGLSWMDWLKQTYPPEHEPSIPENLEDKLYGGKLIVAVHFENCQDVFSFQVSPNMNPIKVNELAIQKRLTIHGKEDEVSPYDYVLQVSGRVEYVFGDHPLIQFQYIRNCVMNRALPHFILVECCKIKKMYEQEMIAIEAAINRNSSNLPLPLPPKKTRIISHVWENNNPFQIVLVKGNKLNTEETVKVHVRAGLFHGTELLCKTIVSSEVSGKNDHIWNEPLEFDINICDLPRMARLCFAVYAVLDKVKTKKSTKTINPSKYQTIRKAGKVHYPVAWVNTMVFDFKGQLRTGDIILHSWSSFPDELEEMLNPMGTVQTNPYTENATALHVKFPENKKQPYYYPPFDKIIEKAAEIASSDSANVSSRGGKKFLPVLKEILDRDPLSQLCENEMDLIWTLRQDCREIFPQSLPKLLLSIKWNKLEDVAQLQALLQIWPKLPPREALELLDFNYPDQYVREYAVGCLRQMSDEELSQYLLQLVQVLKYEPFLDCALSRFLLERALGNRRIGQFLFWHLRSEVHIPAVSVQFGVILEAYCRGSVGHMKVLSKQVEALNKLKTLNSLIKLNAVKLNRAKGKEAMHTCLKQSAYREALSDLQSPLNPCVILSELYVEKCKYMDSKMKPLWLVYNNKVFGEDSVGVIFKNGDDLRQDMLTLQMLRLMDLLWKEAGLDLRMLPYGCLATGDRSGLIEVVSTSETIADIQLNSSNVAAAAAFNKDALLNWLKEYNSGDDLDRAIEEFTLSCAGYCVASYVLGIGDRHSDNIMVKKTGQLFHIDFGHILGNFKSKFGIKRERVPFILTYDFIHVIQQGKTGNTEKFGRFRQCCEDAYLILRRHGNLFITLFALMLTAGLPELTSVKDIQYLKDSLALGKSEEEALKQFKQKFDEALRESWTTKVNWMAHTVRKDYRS
Phosphatidylinositol 4,5-bisphosphate 3-kinase catalytic subunit gamma isoform, sequence (P48736 whole entry, canonical isoform): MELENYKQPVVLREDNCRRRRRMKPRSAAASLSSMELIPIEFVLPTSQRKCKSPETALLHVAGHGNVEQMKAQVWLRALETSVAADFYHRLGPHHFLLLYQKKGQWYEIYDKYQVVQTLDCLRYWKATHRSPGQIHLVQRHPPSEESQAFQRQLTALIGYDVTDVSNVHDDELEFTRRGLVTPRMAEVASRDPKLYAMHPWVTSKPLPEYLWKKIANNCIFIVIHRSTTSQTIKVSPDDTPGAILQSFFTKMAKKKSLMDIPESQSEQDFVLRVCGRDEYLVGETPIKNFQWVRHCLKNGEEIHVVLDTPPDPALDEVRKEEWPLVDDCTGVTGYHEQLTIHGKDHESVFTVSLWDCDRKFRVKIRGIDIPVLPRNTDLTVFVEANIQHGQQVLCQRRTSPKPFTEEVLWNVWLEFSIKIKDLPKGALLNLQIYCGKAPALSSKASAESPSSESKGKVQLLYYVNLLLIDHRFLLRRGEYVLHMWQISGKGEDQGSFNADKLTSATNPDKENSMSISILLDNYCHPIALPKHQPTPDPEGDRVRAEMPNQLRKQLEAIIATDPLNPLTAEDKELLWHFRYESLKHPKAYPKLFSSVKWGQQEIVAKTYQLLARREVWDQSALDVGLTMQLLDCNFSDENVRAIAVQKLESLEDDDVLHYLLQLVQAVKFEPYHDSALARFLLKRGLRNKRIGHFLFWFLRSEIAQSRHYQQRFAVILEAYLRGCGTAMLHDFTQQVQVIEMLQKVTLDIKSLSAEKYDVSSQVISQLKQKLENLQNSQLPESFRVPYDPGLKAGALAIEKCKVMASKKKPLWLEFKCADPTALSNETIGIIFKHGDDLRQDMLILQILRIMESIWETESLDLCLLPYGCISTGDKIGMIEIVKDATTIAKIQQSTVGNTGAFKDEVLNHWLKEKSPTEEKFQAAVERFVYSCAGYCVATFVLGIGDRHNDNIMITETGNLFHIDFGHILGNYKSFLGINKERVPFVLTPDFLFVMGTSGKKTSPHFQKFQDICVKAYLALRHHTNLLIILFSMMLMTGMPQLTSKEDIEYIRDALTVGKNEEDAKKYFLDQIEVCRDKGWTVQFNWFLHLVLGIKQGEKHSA

Structure (SMILES) | IC50 [2] [µM] | other results
O=C(Cc1nnc(-c2ccc3ncccc3c2)o1)NCCc1ccccc1 | 29.2 | inhibition [1]: 73.8%
COc1ccccc1CNC(=O)Cc1nnc(-c2ccc3ncccc3c2)o1 | 18.3 | –
COc1ccc(NC(=O)Cc2nnc(-c3ccc4ncccc4c3)o2)cc1OC | > 200 | –
O=C(Cc1nnc(-c2ccc3ncccc3c2)o1)N1CCN(c2ccccc2)CC1 | > 200 | –
N#Cc1cc(NC(=O)Cc2nnc(-c3ccc4ncccc4c3)o2)ccc1F | > 200 | –
O=C(Cc1nnc(-c2ccccn2)o1)NCc1ccc(F)cc1Cl | > 200 | –
O=C(Cc1nnc(-c2ccc3c(c2)OCO3)o1)NCc1ccc(F)cc1 | > 200 | –
O=C(Cc1nnc(-c2ccc3ncccc3c2)o1)Nc1cccc(C(F)(F)F)c1 | > 200 | –
O=C(Cc1nnc(-c2ccc3ncccc3c2)o1)Nc1ccc(OC(F)(F)F)cc1 | > 200 | –

Compounds with a lower IC50 [2], results first:

IC50 [2] [µM] | Structure (SMILES) | other results
17 | CC(C)NC(=O)CSc1nc(-c2ccc3c(c2)OCO3)nc2cc(=O)[nH]n12 | inhibition [1]: 71.9%
7.6 | COc1ccc(CNC(=O)Cc2nnc(-c3ccc4ncccc4c3)o2)cc1OC | IC50 [3]: 152 µM; IC50 [4]: 4.1 µM; Ratio IC50 (Homo sapiens): 20; IC50 [5]: 14.2 µM
6.6 | O=C(Cc1nnc(-c2ccc3ncccc3c2)o1)NCCc1ccc(Cl)cc1 | IC50 [3]: 9.8 µM; IC50 [4]: 2.6 µM; IC50 [5]: 16.6 µM
15.6 | O=C(Cc1nnc(-c2ccc3ncccc3c2)o1)NCc1ccc(F)cc1Cl | inhibition [1]: 55.5%
